US7320783B2, “Methods and compositions for the enhancement of wound healing” (The Regents of the University of Michigan, priority 2002, dated 2008)

How the values were obtained:
[1] = tested on: C57BL6Ksdb/db obese diabetic mouse dermal wounds; details: topical; Livant et al. (2000) J. Clin. Invest. 105: 1537-1545; cited from earlier work
[2] = tested on: C57BL6Ksdb/db obese diabetic mouse dermal wounds; test: Dermal wound healing in obese diabetic mice, topical application; assay type: in vivo; details: FIG. 7
From the text: X axis, days since wounding. Y axis, wound area, relative to the initial wound area (13 to 19 mm^2). Db/db: healing-impaired, homozygous db/db, obese diabetic mice; db/+: normally healing, heterozygous db/+, non-diabetic littermates. Mean wound areas are shown.
Peptides are further evaluated for their ability to stimulate the diabetic wound healing. The peptides are topically applied to duplicate dermal wounds in healing-impaired obese diabetic mice (Greenhalgh et al., (1990) Am. J. Pathol. 136: 1235-1246), according to published protocols (Livant et al., (2000) J. Clin. Invest. 105: 1537-1545). Wound closure times are determined in both treated and untreated mice. To confirm the importance of the cysteine switch residue, some wounds are treated with the C to S substituted peptides. To quantitate the extent of reepithelialization for several days wounding, wounds are excised, sectioned, stained, and examined microscopically. To evaluate the provisional matrix for indications of wound contraction and angiogenesis, the presence of activated fibroblasts, collagenous fibers, microvasculature, and wound macrophages is assessed in sectioned and stained wounds for several days following wounding as described (Livant et al., (2000) J. Clin. Invest. 105: 1537-1545). These assays are performed using peptides derived from MMP 1, MMP 2, MMP 7, and MMP 9.
Each treatment group consisted of 10 mice with duplicate, dermal wounds of 12.5 to 16.5 mm^2 made in the shoulder area. Complete methods were as described (Livant et al., (2000) J. Clin. Invest. 105: 1537-1545). Treated animal were treated with 10 μg switch (PRC) sequence from MMP2 (Ac-PRCGNPDVANY-NH2) (SEQ ID NO:3). Wound areas were measured by integration of digital images.

[3] = tested on: human microvascular cells; test: SU-ECM in vitro invasion assay, human microvascular cells; assay type: cell-based; details: peptide 2, 6, 20, 60 ng/ml; 5% FCS; 4 hours on SU-ECM; FIG. 1
From the text: (§1) About 1×10^5 human microvascular cells, neonatal fibroblasts, or undifferentiated human keratinocytes were suspended in medium containing 5% fetal calf serum (FCS), mixed with varying concentrations of the MMP 7 switch peptide, Ac-PRCGVPDVAEY-NH2 (Gaire et al., (1994) J. Biol. Chem. 269: 2032-2040), function-blocking anti human MMP 1 monoclonal antibody (Birkedal-Hansen et al., (1988) Biochemistry 27; 6751-6758), or total human IgG, and placed on the surfaces of SU-ECM in vitro invasion substrates. SU-ECM invasion substrates are made as described from sea urchin embryos, and contain a blastocoelic cavity enclosed by an intact basement membrane and associated extracellular matrix (Livant et al., (1995) Cancer Research 55, 5085-5093). After 4 hours of incubation (the time necessary to observe maximal invasion percentages), the invasion percentage in each assay was determined by microscopic examination of the SU-ECM invasion substrates and their associated cells at 400-fold magnification. Invasion percentages are the ratios of the numbers of cells located on the internal surfaces of SU-ECM to the total numbers of cells in contact with either the internal or the external surfaces of SU-ECM, and multiplied by 100.
(§2) Cell culture and SU-ECM invasion assays. […]

[4] = tested on: undifferentiated human keratinocytes; test: SU-ECM in vitro invasion assay, human keratinocytes; assay type: cell-based; details: peptide 2, 6, 20, 60 ng/ml; 5% FCS; 4 hours on SU-ECM; FIG. 5
From the text: as §1, §2

[5] = tested on: human neonatal fibroblasts; test: SU-ECM in vitro invasion assay, human neonatal fibroblasts; assay type: cell-based; details: peptide 2, 6, 20, 60 ng/ml; 5% FCS; 4 hours on SU-ECM; FIG. 3
From the text: as §1, §2

[6] = one topical treatment with 10 μg just after wounding

Ac-PHSRN-NH2 (listed as Homo sapiens)
stimulation of dermal wound healing in obese diabetic C57BL6Ksdb/db mice [1]: potent topical agent for stimulating dermal wound healing

Ac-PRCGNPDVANY-NH2 (listed as Homo sapiens) [PRC peptide]
decrease of the time required for closure of all db/db wounds, relative to untreated db/db mice [2, 6]: 50%
rapidity of closure of treated db/db wounds compared with db/+ non-diabetic mice [2, 6]: as rapid as that of db/+ non-diabetic mice
enhancement of db/db wound healing (wound area relative to the initial wound area) ([2]; single topical application): enhancement

Ac-PRCGVPDVAEY-NH2 (listed as Homo sapiens) [MMP 7 switch peptide, MMP 7 prodomain cysteine switch peptide]
induction of human microvascular cell invasion (percent of cells invaded) [3]: induces dose-dependent invasion
induction of human keratinocyte invasion (percent of keratinocytes invaded) [4]: induces dose-dependent invasion
induction of human neonatal fibroblast invasion (percent of fibroblasts invaded) [5]: induces dose-dependent invasion
